Test system: guinea pig conjunctiva
Assay: Microvascular permeability in guinea pig conjunctiva induced by histamine (extravasation of Evans blue dye), topical ocular administration
Assay type: in vivo, guinea pig (male VAF Dunkin/Hartley)
Conditions: for % change (degree of permeability): topical, vs vehicle; for ED50 (concentration producing 50% inhibition of vascular permeability): Table 3
Experimental: The ocular antihistaminic topical effect of the products which form the subject of the present invention was evaluated by means of a model of microvascular permeability in guinea pig conjunctiva, induced by histamine. In this animal model of ocular antiallergic activity, the power, the fifty percent effective dose and the duration of action are measured.
Microvascular Permeability in Guinea Pig Conjunctiva Induced by Histamine (Extravasation of Evans Blue Dye)
Male VAF Dunkin/Hartley guinea pigs (6 per group) are injected intravenously, into the marginal vein of the ear, with 1.0 ml of Evans blue (1.0 mg/ml). Approximately 15 minutes after injection of the dye, 20 μl of the appropriate concentration of the compound of Example 1 or of the vehicle are applied topically to an eye of each of the animals. 2 minutes, 30 minutes and 6 hours after the topical application, the guinea pigs are anaesthetized and histamine (300 ng/10 μl) is administered to them subconjunctivally. Thirty minutes later the animals are sacrificed by inhalation of CO2 and the area of extravasation of the Evans blue is measured. The area of the blue dye is multiplied by the intensity of the colour, graded from 1 to 6, in order to produce a value of permeability for each animal (Yauni et al., Int. Arch. Allergy Immunol., 1993, 101, 102-106). The values obtained by the groups treated are then compared with those obtained with the group treated with the vehicle using Dunnett's "t" test (Dunnett C. W. "A multiple comparison procedure for comparing treatments with a control", J. Am Star. Assoc 1955, 50, 1096-1121)
This inhibition is observed in a range of concentrations from 0.1% to 0.0001% weight/volume.

CCOCCn1c(CN2CCN(CCCCn3cccn3)CC2)nc2ccccc21 [Example 1]
% change (degree of permeability) (0.00001 % (w/v), 30'): -6% | % change (degree of permeability) (0.00001 % (w/v), 6 h): -3% | % change (degree of permeability) (0.0001 % (w/v), 30'): -45% | % change (degree of permeability) (0.0001 % (w/v), 6 h): -36% | % change (degree of permeability) (0.001 % (w/v), 2'): -41% | % change (degree of permeability) (0.001 % (w/v), 30'): -66% | % change (degree of permeability) (0.001 % (w/v), 6 h): -66% | % change (degree of permeability) (0.01 % (w/v), 2'): -66% | % change (degree of permeability) (0.01 % (w/v), 30'): -85% | % change (degree of permeability) (0.01 % (w/v), 6 h): -91% | % change (degree of permeability) (0.1 % (w/v), 2'): -75% | % change (degree of permeability) (0.1 % (w/v), 30'): -100% | % change (degree of permeability) (0.1 % (w/v), 6 h): -100% | ED50 (concentration producing 50% inhibition of vascular permeability) (2'): 0.0024 % w/v | ED50 (concentration producing 50% inhibition of vascular permeability) (30'): 0.00035 % w/v | ED50 (concentration producing 50% inhibition of vascular permeability) (6 h): 0.00043 % w/v | ED50 (concentration which produces a 50% inhibition of the vascular permeability) (at 2 minutes): 0.0024 w/v | ED50 (concentration which produces a 50% inhibition of the vascular permeability) (at 30 minutes): 0.00035 w/v | ED50 (concentration which produces a 50% inhibition of the vascular permeability) (at 8 hours): 0.00043 w/v | antihistaminic activity and duration of action (in words) (ocular topical administration): powerful antihistaminic activity accompanied by an exceptionally long duration of action | inhibition of vascular permeability induced by histamine (in words) (ocular topical administration): inhibits, significantly and in a dose-dependent manner
